Experiments:
[1] = tested on: retinal progenitor cells differentiated from hESCs (differentiation into photoreceptor cells); assay: Immunochemical staining: positive rates of retinal cell markers after differentiation with substitutes for Wnt3a and Shh; type: cell-based, human; conditions: mean, sample size = 3
Protocol: The eye field precursors (floating aggregates) were cultured in 8-well poly-D-lysine/laminin-coated slides (BD Biosciences, Bedford, Mass.) under the same conditions that were used for differentiation into the retinal progenitor cells, the neural retinal progenitor cells, the photoreceptor cell precursors and the photoreceptor cells.
After being blocked for 90 min, the slides in each differentiation step were incubated overnight at 4° C. with the following antibodies specific for cells of each differentiation step: rabbit-Blue-opsin (1:500, Chemicon), sheep-Chx10 (1:100, Chemicon), rabbit-Crx (1:200, Santa Cruz Biotechnology, Santa Cruz, Calif., USA), rabbit-GFAP (1:200, Invitrogen), mouse-human specific mitochondria (1:50, Chemicon), rabbit-human specific mitochondria (1:200, Chemicon), mouse-Islet1 (1:10, Developmental Studies Hydroma Bank, DSHB; Iowa City, Iowa, USA), mouse-Ki67 (1:100, Vector Laboratories, Peterborough, England), mouse-Mitf (1:1,000, abcam, Cambridge, Mass., USA), mouse-nestin (1:250, BD Sciences), rabbit-neurofilament-200 (1:1,000, Sigma-Aldrich), rabbit-Otx2 (1:100, abcam), rabbit-Pax2 (1:250, abcam), mouse-Pax6 (1:2, DSHB), mouse-peripherin2 (1:500, GenScript, Piscataway, N.J., USA), rabbit-Rax (1:250, abcam), rabbit-recoverin (1:1,000, Chemicon), retinal pigment epithelium 65 (RPE65, 1:100, Chemicon), rabbit-rhodopsin (1:500, Sigma-Aldrich), mouse-rhodopsin (1:500, Ret-P1, Lab Vision, Fremont, Calif., USA), mouse-rhodopsin (1:2,000, Ret-P1, Sigma-Aldrich), mouse-rom1 (1:50, ABR-Affinity Bioreagents, Golden, Colo., USA), rabbit-PDE6 beta (1:100, abcam), rabbit-phosducin (1:500, Santa Cruz Biotechnology), mouse-PKC-alpha (1:500, Sigma-Aldrich), mouse-Prox1 (1:2,000, Chemicon), mouse-Sox2 (1:250, R&D Systems), rabbit-synaptophysin (1:2,000, Santa Cruz Biotechnology), and rabbit-ZO-1 (1:100, Zymed-Invitrogen).
The cells cultured on the slides in each step were washed three times for 5 min with PBS and incubated at room temperature for 2 hrs with species-specific secondary antibody conjugated with Cy3 (1:800, Jackson Immunoresearch Laboratory) or Alexa488 (1:500, Invitrogen). A standard material suitable for the primary and the secondary antibody was used to examine non-specific staining or interaction between the antibodies. Afterwards, the cells were washed three times for 5 min with PBS, counterstained with DAPI (4′,6-diamidino-2 phenylindole) and mounted in Vectashield (Vector Laboratories), followed by visualization under an epifluorescence microscope (Nikon Eclipse, E800, Tokyo, Japan) and a confocal microscope (Leica, Leica Microsystems Inc, Bannockburn, Ill., USA or Zeiss LSM510, Carl Zeiss, Inc, Thornwood, N.Y., USA).
500 cells were counted from 20 microscopic fields randomly selected at 200 magnification and evaluated for positive responses to each antibody. Positive responses to antibodies were determined after at least three evaluations. […] All data were represented as mean standard error of the mean (S.E.M) with a statistical significance of p<0.05.

[2] = tested on: hESC-derived retinal progenitor cells / neural retinal progenitor cells; assay: Immunochemical staining: marker positive rates during stepwise differentiation (Examples 4 to 6); type: cell-based, human; conditions: 50 ng/ml Wnt3a for 5 days (day 18); 12.8% before addition
Protocol: The retinal progenitor cells generated in Example 3 were cultured in a medium for inducing differentiation into neural retinal progenitor cells [DMEM/F12 (Invitrogen), 1 mM L-glutamine (Invitrogen), 0.1 mM nonessential amino acids (Invitrogen), 0.1 mM mercaptoethanol (Sigma-Aldrich), 1% B27 supplement (Invitrogen), 1% N2 supplement (Invitrogen), 10 ng/ml noggin, 10 ng/ml IGF-1, 5 ng/ml FGF2, 50 ng/ml recombinant Wnt3a (R&D Systems)] supplied thereto for 5 days, thus giving neural retinal progenitor cells (FIG. 1).
The neural retinal progenitor cells generated in Example 4 were induced to differentiate into photoreceptor cell precursors by supplying a medium [DMEM/F12 (Invitrogen), 1 mM L-glutamine (Invitrogen), 0.1 mM nonessential amino acids (Invitrogen), 0.1 mM mercaptoethanol (Sigma-Aldrich), 1% B27 supplement (Invitrogen), 1% N2 supplement (Invitrogen), 10 ng/ml IGF-1, 50 ng/ml Wnt3a, and 250 ng/ml recombinant Shh (Sonic Hedgehog amino terminal peptide, Shh, R&D Systems)] for 3 days. Noggin and FGF2, both used in the previous step, were excluded from the medium (FIG. 1).
The differentiation of the cells obtained in Examples 3 to 6 was examined using an immunochemical staining method as follows. […]

O=C1Nc2cc(Br)ccc2/C1=C1/Nc2ccccc2/C1=N\O [BIO, 6-bromoindirubin-3′ oxime]
Positive rate of Crx ([1]; Wnt3a substitute at 2 uM): 65.8% | Positive rate of Ki67 ([1]; Wnt3a substitute at 2 uM): 17.2% | Positive rate of Pax6 ([1]; Wnt3a substitute at 2 uM): 92.8% | Positive rate of Rom ([1]; Wnt3a substitute at 2 uM): 60.3% | Positive rate of b-opsin ([1]; Wnt3a substitute at 2 uM): 77.5% | Positive rate of peripherin2 ([1]; Wnt3a substitute at 2 uM): 33.9% | Positive rate of recoverin ([1]; Wnt3a substitute at 2 uM): 77.1% | Positive rate of rhodopsin ([1]; Wnt3a substitute at 2 uM): 71.5%

[Cl-].[Li+] [LiCl]
Positive rate of recoverin ([1]; Wnt3a substitute at 2.5 mM): 64.1% | Positive rate of rhodopsin ([1]; Wnt3a substitute at 2.5 mM): 56.2% | Positive rate of Crx ([1]; Wnt3a substitute at 5 mM): 5.0% | Positive rate of Ki67 ([1]; Wnt3a substitute at 5 mM): 33.3% | Positive rate of peripherin2 ([1]; Wnt3a substitute at 5 mM): 1.5% | Positive rate of recoverin ([1]; Wnt3a substitute at 5 mM): 78.9% | Positive rate of rhodopsin ([1]; Wnt3a substitute at 5 mM): 68.5%

O=C1NC(=O)C(c2ccccc2[N+](=O)[O-])=C1Nc1ccc(O)c(Cl)c1 [SB415286]
Positive rate of Crx ([1]; Wnt3a substitute at 30 uM): 53.7% | Positive rate of Ki67 ([1]; Wnt3a substitute at 30 uM): 13.3% | Positive rate of Pax6 ([1]; Wnt3a substitute at 30 uM): 89.1% | Positive rate of Rom ([1]; Wnt3a substitute at 30 uM): 59.5% | Positive rate of b-opsin ([1]; Wnt3a substitute at 30 uM): 53.7% | Positive rate of peripherin2 ([1]; Wnt3a substitute at 30 uM): 9.1% | Positive rate of recoverin ([1]; Wnt3a substitute at 30 uM): 70.0% | Positive rate of rhodopsin ([1]; Wnt3a substitute at 30 uM): 69.3%

Norrin: recombinant Norrin (R&D Systems), activator of the Wnt pathway that binds to Frizzled4 receptor
Positive rate of Crx ([1]; Wnt3a substitute at 50 ng/ml): 39.3% | Positive rate of Ki67 ([1]; Wnt3a substitute at 50 ng/ml): 42.2% | Positive rate of Rom ([1]; Wnt3a substitute at 50 ng/ml): 69.5% | Positive rate of b-opsin ([1]; Wnt3a substitute at 50 ng/ml): 71.1% | Positive rate of peripherin2 ([1]; Wnt3a substitute at 50 ng/ml): 24.9% | Positive rate of recoverin ([1]; Wnt3a substitute at 50 ng/ml): 85.0% | Positive rate of rhodopsin ([1]; Wnt3a substitute at 50 ng/ml): 82.9%

B1: Wnt3a: recombinant Wnt3a (R&D Systems), Wnt signaling pathway activator (protein, UniProt P56704 19-352, looked up)
Protein Wnt-3a: SYPIWWSLAVGPQYSSLGSQPILCASIPGLVPKQLRFCRNYVEIMPSVAEGIKIGIQECQHQFRGRRWNCTTVHDSLAIFGPVLDKATRESAFVHAIASAGVAFAVTRSCAEGTAAICGCSSRHQGSPGKGWKWGGCSEDIEFGGMVSREFADARENRPDARSAMNRHNNEAGRQAIASHMHLKCKCHGLSGSCEVKTCWWSQPDFRAIGDFLKDKYDSASEMVVEKHRESRGWVETLRPRYTYFKVPTERDLVYYEASPNFCEPNPETGSFGTRDRTCNVSSHGIDGCDLLCCGRGHNARAERRREKCRCVFHWCCYVSCQECTRVYDVHTCK
Positive rate of the photoreceptor cell precursor marker Crx after Wnt3a addition [2]: 80.1%

B2: Wntl: recombinant Wnt1 (PeproTech), Wnt signaling pathway activator used instead of Wnt3a (protein, UniProt P04628 28-370, looked up)
Proto-oncogene Wnt-1: ANSSGRWWGIVNVASSTNLLTDSKSLQLVLEPSLQLLSRKQRRLIRQNPGILHSVSGGLQSAVRECKWQFRNRRWNCPTAPGPHLFGKIVNRGCRETAFIFAITSAGVTHSVARSCSEGSIESCTCDYRRRGPGGPDWHWGGCSDNIDFGRLFGREFVDSGEKGRDLRFLMNLHNNEAGRTTVFSEMRQECKCHGMSGSCTVRTCWMRLPTLRAVGDVLRDRFDGASRVLYGNRGSNRASRAELLRLEPEDPAHKPPSPHDLVYFEKSPNFCTYSGRLGTAGTAGRACNSSSPALDGCELLCCGRGHRTRTQRVTERCNCTFHWCCHVSCRNCTHTRVLHECL
Positive rate of Crx ([1]; Wnt3a substitute at 50 ng/ml): 60.3% | Positive rate of Ki67 ([1]; Wnt3a substitute at 50 ng/ml): 23.8% | Positive rate of Rom ([1]; Wnt3a substitute at 50 ng/ml): 55.9% | Positive rate of b-opsin ([1]; Wnt3a substitute at 50 ng/ml): 61.6% | Positive rate of peripherin2 ([1]; Wnt3a substitute at 50 ng/ml): 3.8% | Positive rate of recoverin ([1]; Wnt3a substitute at 50 ng/ml): 70.9% | Positive rate of rhodopsin ([1]; Wnt3a substitute at 50 ng/ml): 66.2%

B3: Wntll: recombinant Wnt11 (R&D Systems), Wnt signaling pathway activator used instead of Wnt3a (protein, UniProt O96014 25-354, looked up)
Protein Wnt-11: IKWLALSKTPSALALNQTQHCKQLEGLVSAQVQLCRSNLELMHTVVHAAREVMKACRRAFADMRWNCSSIELAPNYLLDLERGTRESAFVYALSAAAISHAIARACTSGDLPGCSCGPVPGEPPGPGNRWGGCADNLSYGLLMGAKFSDAPMKVKKTGSQANKLMRLHNSEVGRQALRASLEMKCKCHGVSGSCSIRTCWKGLQELQDVAADLKTRYLSATKVVHRPMGTRKHLVPKDLDIRPVKDSELVYLQSSPDFCMKNEKVGSHGTQDRQCNKTSNGSDSCDLMCCGRGYNPYTDRVVERCHCKYHWCCYVTCRRCERTVERYVCK
Positive rate of Crx ([1]; Wnt3a substitute at 50 ng/ml): 65.9% | Positive rate of Ki67 ([1]; Wnt3a substitute at 50 ng/ml): 40.1% | Positive rate of Rom ([1]; Wnt3a substitute at 50 ng/ml): 50.2% | Positive rate of b-opsin ([1]; Wnt3a substitute at 50 ng/ml): 30.6% | Positive rate of peripherin2 ([1]; Wnt3a substitute at 50 ng/ml): 0.5% | Positive rate of recoverin ([1]; Wnt3a substitute at 50 ng/ml): 65.3% | Positive rate of rhodopsin ([1]; Wnt3a substitute at 50 ng/ml): 51.8% | Positive rate of peripherin2 ([1]; Wnt3a substitute at 100 ng/ml): 10.7% | Positive rate of recoverin ([1]; Wnt3a substitute at 100 ng/ml): 61.8% | Positive rate of rhodopsin ([1]; Wnt3a substitute at 100 ng/ml): 59.1%

B4: Wnt5A: recombinant Wnt5A (R&D Systems), Wnt signaling pathway activator used instead of Wnt3a (protein, UniProt P41221 62-380, looked up)
Protein Wnt-5a: IIGAQPLCSQLAGLSQGQKKLCHLYQDHMQYIGEGAKTGIKECQYQFRHRRWNCSTVDNTSVFGRVMQIGSRETAFTYAVSAAGVVNAMSRACREGELSTCGCSRAARPKDLPRDWLWGGCGDNIDYGYRFAKEFVDARERERIHAKGSYESARILMNLHNNEAGRRTVYNLADVACKCHGVSGSCSLKTCWLQLADFRKVGDALKEKYDSAAAMRLNSRGKLVQVNSRFNSPTTQDLVYIDPSPDYCVRNESTGSLGTQGRLCNKTSEGMDGCELMCCGRGYDQFKTVQTERCHCKFHWCCYVKCKKCTEIVDQFVCK
Positive rate of Crx ([1]; Wnt3a substitute at 50 ng/ml): 67.3% | Positive rate of Ki67 ([1]; Wnt3a substitute at 50 ng/ml): 41.3% | Positive rate of Rom ([1]; Wnt3a substitute at 50 ng/ml): 58.8% | Positive rate of b-opsin ([1]; Wnt3a substitute at 50 ng/ml): 55.0% | Positive rate of peripherin2 ([1]; Wnt3a substitute at 50 ng/ml): 20.7% | Positive rate of recoverin ([1]; Wnt3a substitute at 50 ng/ml): 61.0% | Positive rate of rhodopsin ([1]; Wnt3a substitute at 50 ng/ml): 59.5% | Positive rate of peripherin2 ([1]; Wnt3a substitute at 100 ng/ml): 14.2% | Positive rate of recoverin ([1]; Wnt3a substitute at 100 ng/ml): 61.6% | Positive rate of rhodopsin ([1]; Wnt3a substitute at 100 ng/ml): 56.1%
